According to ChEMBL document CHEMBL1134853, “Essential structural factors of acetogenins, potent inhibitors of mitochondrial complex I” (Bioorg Med Chem Lett, 2002):

Biological target: T1, NADH dehydrogenase [ubiquinone] 1 alpha subcomplex subunit 11 (Bos taurus, UniProt Q8HXG6)
T1 sequence (Q8HXG6 whole entry): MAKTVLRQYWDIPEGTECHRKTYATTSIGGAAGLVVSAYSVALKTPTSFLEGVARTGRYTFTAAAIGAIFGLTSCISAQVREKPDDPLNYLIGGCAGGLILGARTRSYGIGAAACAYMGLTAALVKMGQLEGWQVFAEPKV
Experiment: Inhibitory activity against bovine heart mitochondrial NADH ubiquinone oxidoreductase (complex I)

## CCCCCCCCCC[C@@H](O)[C@H]1CC[C@H]([C@H]2CC[C@H]([C@H](O)CCCCCCCCCCCCC3=C[C@H](C)OC3=O)O2)O1 [ISODESAACETYLUVARICIN]
  IC50: 0.9 nM

## C[C@H]1C=C(CCCCCCCCCCCC[C@@H](O)[C@H]2CC[C@H]([C@H]3CC[C@H]([C@@H](C)O)O3)O2)C(=O)O1
  IC50: 3.1 nM
